Assay results from patent US4931447A, “Cycloalkylamides of (8β)-1-alkyl-6-(substituted) ergolines” (Eli Lilly and Company, priority 1989, dated 1990).

Molecular target: T1, 5HT2 Receptors (Rattus norvegicus, UniProt P14842)
T1 construct: from tissue; host or cells: rat external jugular vein (isolated, male Wistar)
Experiment: Apparent antagonist dissociation constant (KB) at 5HT2 receptors, serotonin-induced contraction of isolated rat external jugular vein
Type: cell-based, rat (male Wistar)
Description: Male Wistar rats (about 150-300 gram weight) were killed and their external jugular veins and thoracic aortas dissected free of connective tissue, cannulated in situ and placed in a modified Krebs' bicarbonate buffer in a suitable tissue bath. Two L-shaped 30-gauge stainless-steel hypodermic needles were inserted in each cannula and the dissected vessels gently pushed onto the needles. One needle was attached with thread to a stationary glass rod and the other to the transducer. [The procedure employed was that described by Hooker, Calkins and Fleisch, Blood Vessels, 14, 1, (1977) for use with circular smooth muscle preparations.]
The modified Krebs' bicarbonate buffer was composed of the following (concentrations in millimoles): sodium chloride, 118.2; potassium chloride, 4.6; calcium chloride dihydrate, 1.6; potassium dihydrogenphosphate, 1.2; magnesium sulfate, 1.2; dextrose, 10.0; sodium bicarbonate, 24.8; and water q.s. to 1000 g. The tissue baths were maintained at 37° C. and were aerated with 95% oxygen: 5% carbon dioxide (v:v). An initial optimum resting force of 1 g and 4 g was applied to the jugular vein and aorta, respectively. Isometric contractions were recorded as changes in grams of force on a Beckman Dynograph with Statham UC-3 transducers and microscale accessory attachment. Tissues were allowed to equilibrate 1 to 2 hours before exposure to drugs. Control responses to serotonin in the jugular vein and to norepinephrine in the aorta were obtained. The vessels were then incubated with appropriate concentrations of the test compound for one hour. Responses to serotonin or to norepinephrine were then repeated in the presence of the test compound. Contraction to serotonin was evaluated in the jugular vein since this tissue produces marked responses to serotonin in the absence of alpha receptors. See Cohen and Wiley, J. Pharm. Exp. Ther., 205, 400 (1978). Alpha receptor antagonist activity was evaluated in the aorta.
Apparent antagonist dissociation constants were determined for each concentration of the test compound according to the following equation: [formula] wherein [B] is the concentration of the antagonist and the dose ratio is the ED50 of the agonist in the presence of the antagonist divided by the control ED50. […] The -log KB values obtained for representative sensitive compounds of this invention and are given below in Table 1. ln the Table, column I provides the Example Number of the compound evaluated in the screen; columns 2-6, the identity of the compound evaluated in the screen when taken with the structure provided; and column 7, the apparent dissociation constant for the test compound.

T1 sequence (P14842 whole entry): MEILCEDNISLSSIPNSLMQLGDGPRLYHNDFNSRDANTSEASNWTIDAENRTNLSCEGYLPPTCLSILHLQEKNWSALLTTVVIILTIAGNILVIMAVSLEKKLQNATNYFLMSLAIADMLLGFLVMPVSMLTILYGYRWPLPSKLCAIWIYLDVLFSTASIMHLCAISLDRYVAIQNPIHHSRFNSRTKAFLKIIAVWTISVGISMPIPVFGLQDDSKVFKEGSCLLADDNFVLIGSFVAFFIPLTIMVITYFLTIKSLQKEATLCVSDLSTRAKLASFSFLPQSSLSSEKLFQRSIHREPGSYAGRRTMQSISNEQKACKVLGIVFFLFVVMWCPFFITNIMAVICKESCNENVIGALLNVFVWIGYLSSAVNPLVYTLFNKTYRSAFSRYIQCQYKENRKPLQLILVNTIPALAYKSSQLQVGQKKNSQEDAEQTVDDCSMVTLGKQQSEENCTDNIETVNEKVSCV

## CC(C)n1cc2c3c(cccc31)[C@H]1C[C@@H](C(=O)NC3CCCCC3)CN(C)[C@@H]1C2 [Example 1, (8β)-N-Cyclohexyl-1-isopropyl-6-methylergoline-8-carboxamide]
  Kb: 0.214 nM
